Columns and labels:
[1] = system: peritoneal exudate cells (PECs); experiment: Viability of peritoneal exudate cells; type: cell-based, mice; conditions: column head not given
Method: (§1) The biological study was performed on a murine colon adenocarcinoma cell line (MC38), two human colorectal carcinoma cell lines (HCT116 and HT29), and a human fetal lung fibroblast cell line (MRC-5). All cell lines are commercially available and were obtained from the American Type Culture Collection (ATCC). The human cell lines were kept in HEPES-buffered RPMI-1640 medium supplemented with 10 [drawing 141] heat-inactivated FCS, 2 mM L-glutamine, 0.01 [drawing 142] sodium pyruvate, penicillin (100 units mL^−1), and, streptomycin ( [drawing 143] mL^-1). The MC38 cell line was maintained in DMEM medium additionally supplemented with 1 [drawing 144] non-essential amino acids. Cells were grown at [drawing 145] in a humidified atmosphere with 5 [drawing 146] [drawing 147] . Peritoneal exudate cells (PECs) were isolated from healthy C57BL/6 mice (males, n = 3, 3 months old, weight 22–25 g) by performing an ice-cold PBS peritoneal lavage. Mice were sacrificed by cervical dislocation. Cells were cultivated for 4 h when nonadherent population was removed by washing in PBS, and additionally cultivated overnight in HEPES-buffered RPMI-1640 medium supplemented with 5 [drawing 148] heat-inactivated FCS before treatment with experimental drugs. […]
(§2) After 72 h, cell viability was determined using MTT and CV tests. […] For both viability tests, the absorbance of the developed colors was measured using an automated microplate reader at 570 nm with a reference wavelength of 670 nm. The results were expressed as a percentage of the control values of the untreated cells, which were arbitrarily set at 100 [drawing 160] . IC50 values, defined as 50 [drawing 161] inhibitory concentration, were calculated using a four-parameter logistic function and presented as mean±SD. […] To evaluate the nature of the detected autophagy, a combined treatment with compound 3 and the autophagy inhibitors chloroquine (Chlq) and 3-methyladenine (3-MA) was carried out. […] After 72 h, cell viability was determined by CV assay.

[2] = system: MC38 cells; experiment: Crystal violet (CV) viability assay, MC38; type: cell-based, murine; conditions: 72 h
Method: (§3) In a preliminary test, the stability of all compounds dissolved in the cell medium (c = 100 μM, T = [drawing 47] ) for 72 h was validated by HPLC (see Supporting Information). Cell lines were incubated with the respective compounds in a concentration range of 1.56–100 μM for 72 h, and cell viability was measured using 3-(4,5-dimethylthiazol-2-yl)-2,5-diphenyltetrazolium bromide (MTT) and crystal violet (CV) assays. […] As MTT tests gave inconsistent results, possibly due to interference of the compound with mitochondrial respiration, for the further evaluation only the CV results are considered[97],[98].
(§4) The biological study was performed on a murine colon adenocarcinoma cell line (MC38), two human colorectal carcinoma cell lines (HCT116 and HT29), and a human fetal lung fibroblast cell line (MRC-5). All cell lines are commercially available and were obtained from the American Type Culture Collection (ATCC). The human cell lines were kept in HEPES-buffered RPMI-1640 medium supplemented with 10 [drawing 141] heat-inactivated FCS, 2 mM L-glutamine, 0.01 [drawing 142] sodium pyruvate, penicillin (100 units mL^−1), and, streptomycin ( [drawing 143] mL^-1). The MC38 cell line was maintained in DMEM medium additionally supplemented with 1 [drawing 144] non-essential amino acids. Cells were grown at [drawing 145] in a humidified atmosphere with 5 [drawing 146] [drawing 147] . Peritoneal exudate cells (PECs) were isolated from healthy C57BL/6 mice (males, n = 3, 3 months old, weight 22–25 g) by performing an ice-cold PBS peritoneal lavage. Mice were sacrificed by cervical dislocation. Cells were cultivated for 4 h when nonadherent population was removed by washing in PBS, and additionally cultivated overnight in HEPES-buffered RPMI-1640 medium supplemented with 5 [drawing 148] heat-inactivated FCS before treatment with experimental drugs. Animal handling and protocol for isolation of PECs were performed according to European Union rules, and the ARRIVE guidelines 2.0.
(§5) For the viability tests, MC38, HCT116, and HT29 cells were seeded in 96-well plates at a density of 2 [drawing 149] 103, 5 [drawing 150] 103, and 6 [drawing 151] 10^3 cells/well, respectively. To determine whether the drug affected the viability of healthy, non-malignant cells, MRC-5 and PECs were seeded in 96-well plates at a density of 8 [drawing 152] 103 and 2 [drawing 153] 10^5 cells/well, respectively. For the flow cytometric analyses, MC38 cells were seeded in 6-well plates at 5 [drawing 154] 10^4 cells/well. For morphological assessment of nuclei and the detection of autophagy, MC38 cells were seeded in 2-well chamber slides at 1.5 [drawing 155] 10^4 cells/well.
(§6) After 72 h, cell viability was determined using MTT and CV tests. First, the supernatant from the wells was discarded and the cells were incubated with an MTT solution (0.5 mg mL^−1). After half an hour, the purple formazan crystals formed were dissolved in DMSO. For CV staining of the cells, the cells were fixed with 4 [drawing 157] PFA for 10 min and then stained with a 0.02 [drawing 158] CV solution for 15 min, all at room temperature (RT). The cells were then washed with tap water, air-dried and the dye was dissolved in 33 [drawing 159] acetic acid. For both viability tests, the absorbance of the developed colors was measured using an automated microplate reader at 570 nm with a reference wavelength of 670 nm. The results were expressed as a percentage of the control values of the untreated cells, which were arbitrarily set at 100 [drawing 160] . IC50 values, defined as 50 [drawing 161] inhibitory concentration, were calculated using a four-parameter logistic function and presented as mean±SD. All biological experiments were performed in triplicates. To evaluate the nature of the detected autophagy, a combined treatment with compound 3 and the autophagy inhibitors chloroquine (Chlq) and 3-methyladenine (3-MA) was carried out. […] After 72 h, cell viability was determined by CV assay.

[3] = system: human fetal lung fibroblast cell line MRC-5; experiment: Viability of non-malignant MRC-5 cells; type: cell-based; conditions: column head not given
Method: as §1, §2

[4] = system: HCT116 cells; experiment: MTT viability assay, HCT116; type: cell-based, human; conditions: 72 h, mean±SD; read-out: IC50 [μM] (n = 3) HCT116 MTT
Method: as §3, §4, §5, §6

[5] = system: MC38 cells; experiment: ApoStat caspase activity, flow cytometry; type: cell-based, murine; conditions: IC50 concentration, 72 h
Method: (§7) For all flow cytometric analyses, MC38 cells were seeded overnight and then treated with the IC50 concentration of compound 3 for 72 h. The cells were harvested, washed, and stained according to the manufacturer’s instructions for each method. To determine whether the compound induces apoptosis, cells were double stained with AnnV-FITC and PI (15 μg mL^–1) for 15 min at RT in the dark. To detect caspase activity, cells were stained with the FITC-conjugated caspase inhibitor ApoStat for 30 min at [drawing 162] . To detect cell proliferation, MC38 cells were stained with CFSE (1 μM) for 10 min at [drawing 163] prior to seeding and then treated as previously described. To detect intracellular production of Reactive oxygen/nitrogen Species (ROS/RNS), MC38 cells were prestained with DHR 123 (1 [drawing 164] M) for 20 min at [drawing 165] , then seeded and exposed to an IC50 concentration of compound 3. After 72 h incubation, all samples were washed, resuspended in PBS and fluorescence intensity was analyzed using a CytoFLEX [drawing 166] flow cytometer (Beckman Coulter, Pasadena, CA, USA), while the data obtained was evaluated using the [drawing 167] software program.

[6] = system: MC38 cells; experiment: AnnV-FITC/PI double staining, flow cytometry; type: cell-based, murine; conditions: IC50 concentration, 72 h
Method: as §7

[7] = system: MC38 cells; experiment: DHR 123 ROS/RNS production, flow cytometry; type: cell-based, murine; conditions: IC50 concentration, 72 h
Method: as §7

[8] = system: HCT116 cells; experiment: Crystal violet (CV) viability assay, HCT116; type: cell-based, human; conditions: 72 h, mean±SD; read-out: IC50 [μM] (n = 3) HCT116 CV
Method: as §3, §4, §5, §6

[9] = system: MC38 cells; experiment: CFSE cell proliferation, flow cytometry; type: cell-based, murine; conditions: IC50 concentration, 72 h
Method: as §7

Substance: 1-[2-(7,8-dicarba-nido-undecaborate)]- [drawing 126] H-indolium-2-amine [compound 3]
- Selectivity index (IC50 value of primary vs. cancer cells), PEC, second cancer cell line column ([1]; presumably HCT116): 2.17
- Selectivity index (IC50 value of primary vs. cancer cells), PEC, third cancer cell line column ([1]; presumably HT29): 1.42
- Selectivity index (IC50 value of primary vs. cancer cells), PEC, first cancer cell line column ([1]; presumably MC38): 2.63
- IC50 ([2]; mean±SD, read-out: IC50 [μM] (n = 3) MC38 CV): 9.5 ± 0.4 µM
- cell viability on co-treatment with 3-methyladenine (3-MA) ([2]; IC50 concentration of 3 plus 3-MA 1 mM, CV assay): further viability decrease
- cell viability on co-treatment with chloroquine (Chlq) ([2]; IC50 concentration of 3 plus Chlq 20 μM, CV assay): further viability decrease
- Selectivity index (IC50 value of primary vs. cancer cells), MRC-5, second cancer cell line column ([3]; presumably HCT116): 1.5
- Selectivity index (IC50 value of primary vs. cancer cells), MRC-5, third cancer cell line column ([3]; presumably HT29): 0.98
- Selectivity index (IC50 value of primary vs. cancer cells), MRC-5, first cancer cell line column ([3]; presumably MC38): 1.81
- IC50 [4]: 6.9 ± 1.5 µM
- total caspase activity vs controls [5]: no significant change in total caspase activity
- apoptosis (AnnV-FITC/PI), in words [6]: moderate apoptotic cell accumulation
- production of ROS/RNS (DHR 123) [7]: strongly depleted
- IC50 [8]: 11.5 ± 1 µM
- CFSE mean fluorescence intensity (undivided cell fraction) [9]: significantly higher in comparison to controls

— PMC11649784, “Re-design and evaluation of diclofenac-based carborane-substituted prodrugs and their anti-cancer potential” (Scientific Reports, 2024)
